Like-named read-outs stand apart in the source and are kept apart here.
Test: Single escalating dose IV infusion pharmacokinetics in healthy volunteers (noncompartmental)
Type: in vivo, human
Settings: both sexes, human, plasma, iv; for concentration at 24.5 h: read-out: concentration at 24.5 hours after the start of infusion; for concentration at 0.25 h / concentration at 0.5 h / concentration at 0.75 h / concentration at 1 h / concentration at 2.5 h / concentration at 3.5 h / concentration at 8.5 h / concentration at 12.5 h / concentration at 6.5 h: r7-9=Subjects 1-3,r11=Mean,r13=Min,r14=Median,r15=Max,r17=Geometric Mean; for concentration at 0.5 h: Time 0.50 h
Experimental: Forty-five subjects have enrolled in the study.
Analysis of plasma concentration versus time data for calculation of standard pharmacokinetic (PK) parameters following intravenous infusion administration was conducted using Phoenix WinNonlin version 6.3 using a nominal infusion duration and scheduled blood sampling times. Random subject numbers were assigned by the bioanalytical laboratory to retain the blind.
(§1) Analysis of plasma concentration versus time data for calculation of standard pharmacokinetic (PK) parameters following intravenous infusion administration was conducted using Phoenix WinNonlin version 6.3 using a nominal infusion duration and scheduled blood sampling times.
as §1

[1] = 6 mg/m^2, Compound 1 Concentration, Cohort 1, 6 mg/m^2 IV
[2] = 12 mg/m^2, Compound 1 Concentration, Cohort 2, 12 mg/m^2 IV
[3] = 24 mg/m2, Cohort 3, 24 mg/m^2 IV, r6-8=Subjects 1-3,r10=Mean,r12=Min,r13=Median,r14=Max,r16=Geometric Mean

For `CN1CCN(c2ccc(Nc3ncc4cc5n(c4n3)C3(CCCCC3)CNC5=O)nc2)CC1` [Compound 1, 2′-((5-(4-methylpiperazin-1-yl)pyridin-2-yl)amino)-7′,8′-dihydro-6′H-spiro[cyclohexane-1,9′-pyrazino[1′,2′:1,5]pyrrolo[2,3-d]pyrimidin]-6′-one], the concentration at 24.5 h (6 mg/m^2, Cohort 1, 6 mg/m^2 IV, 1 of 3 subjects measurable) was 0.595 ng/mL, the concentration at 0.25 h [1] was 49 ng/mL and the concentration at 0.5 h [1] was 46.9 ng/mL. The concentration at 0.75 h [1] was 16.3 ng/mL, the concentration at 1 h (6 mg/m^2, Compound 1 Concentration, Cohort 1, 6 mg/m^2 IV, Time 1.00 h) was 11.8 ng/mL and the concentration at 2.5 h (6 mg/m^2, Compound 1 Concentration, Cohort 1, 6 mg/m^2 IV, Time 2.50 h) was 4.69 ng/mL. For the same molecule, the concentration at 3.5 h (6 mg/m^2, Compound 1 Concentration, Cohort 1, 6 mg/m^2 IV, Time 3.50 h) was 3.75 ng/mL, the concentration at 8.5 h (6 mg/m^2, Compound 1 Concentration, Cohort 1, 6 mg/m^2 IV, Time 8.50 h) was 1.39 ng/mL and the concentration at 12.5 h (6 mg/m^2, Compound 1 Concentration, Cohort 1, 6 mg/m^2 IV, Time 12.50 h) was 0.752 ng/mL. For the same molecule, the AUC(0-inf) (12 mg/m2, Cohort 2, 12 mg/m^2 IV, mean, read-out: AUCinf averaged) was 148 ng·h/mL, the Cmax (12 mg/m2, Cohort 2, 12 mg/m^2 IV, mean, read-out: Cmax averaged) was 122 ng/mL and the half-life (12 mg/m2, Cohort 2, 12 mg/m^2 IV, mean, read-out: Half-lives averaged (converted)) was 8.22 h. The Tmax (12 mg/m2, Cohort 2, 12 mg/m^2 IV, median, read-out: median Tmax) was 0.5 h, the MRT inf (12 mg/m2, Cohort 2, 12 mg/m^2 IV, r6-8=Subjects 1-3,r10=Mean,r12=Min,r13=Median,r14=Max,r16=Geometric Mean) was 5.56 h and the AUC(0-inf) (12 mg/m2, Cohort 2, 12 mg/m^2 IV, r6-8=Subjects 1-3,r10=Mean,r12=Min,r13=Median,r14=Max,r16=Geometric Mean, read-out: AUCinf) was 148 ng·h/mL. It also gave a Cmax (12 mg/m2, Cohort 2, 12 mg/m^2 IV, r6-8=Subjects 1-3,r10=Mean,r12=Min,r13=Median,r14=Max,r16=Geometric Mean, read-out: Cmax) of 122 ng/mL, a Tmax (12 mg/m2, Cohort 2, 12 mg/m^2 IV, r6-8=Subjects 1-3,r10=Mean,r12=Min,r13=Median,r14=Max,r16=Geometric Mean, read-out: Tmax) of 0.417 h and a half-life (12 mg/m2, Cohort 2, 12 mg/m^2 IV, r6-8=Subjects 1-3,r10=Mean,r12=Min,r13=Median,r14=Max,r16=Geometric Mean, read-out: t½ (converted)) of 8.22 h. For the same molecule, the half-life (12 mg/m2, Cohort 2, 12 mg/m^2 IV, range over subjects, read-out: Half-lives range) was 7.56 to 8.89 h, the concentration at 24.5 h (12 mg/m^2, Cohort 2, 12 mg/m^2 IV, range over 3 subjects) was 0.506 to 1.06 ng/mL and the concentration at 0.25 h [2] was 115 ng/mL. For the same molecule, the concentration at 0.5 h [2] was 102 ng/mL, the concentration at 0.75 h [2] was 33.2 ng/mL and the concentration at 1 h (12 mg/m^2, Compound 1 Concentration, Cohort 2, 12 mg/m^2 IV, Time 1.0 h) was 23.9 ng/mL. It also gave a concentration at 2.5 h (12 mg/m^2, Compound 1 Concentration, Cohort 2, 12 mg/m^2 IV, Time 2.5 h) of 8.75 ng/mL, a concentration at 3.5 h (12 mg/m^2, Compound 1 Concentration, Cohort 2, 12 mg/m^2 IV, Time 3.5 h) of 7.89 ng/mL and a concentration at 6.5 h [2] of 3.99 ng/mL. It also gave a concentration at 8.5 h (12 mg/m^2, Compound 1 Concentration, Cohort 2, 12 mg/m^2 IV, Time 8.5 h) of 2.79 ng/mL, a concentration at 12.5 h (12 mg/m^2, Compound 1 Concentration, Cohort 2, 12 mg/m^2 IV, Time 12.5 h) of 1.65 ng/mL and an AUC(0-inf) (24 mg/m2, Cohort 3, 24 mg/m^2 IV, mean, read-out: AUCinf averaged) of 287 ng·h/mL. The Cmax (24 mg/m2, Cohort 3, 24 mg/m^2 IV, mean, read-out: Cmax averaged) was 252 ng/mL, the half-life (24 mg/m2, Cohort 3, 24 mg/m^2 IV, mean, read-out: Half-lives averaged (converted)) was 9.88 h and the Tmax (24 mg/m2, Cohort 3, 24 mg/m^2 IV, median, read-out: median Tmax) was 0.5 h. The AUC(0-t) [3] was 261 ng·h/mL, the MRT inf [3] was 6.65 h and the AUC(0-inf) (24 mg/m2, Cohort 3, 24 mg/m^2 IV, r6-8=Subjects 1-3,r10=Mean,r12=Min,r13=Median,r14=Max,r16=Geometric Mean, read-out: AUCinf) was 287 ng·h/mL. It also gave a Cmax (24 mg/m2, Cohort 3, 24 mg/m^2 IV, r6-8=Subjects 1-3,r10=Mean,r12=Min,r13=Median,r14=Max,r16=Geometric Mean, read-out: Cmax) of 252 ng/mL, a Tmax (24 mg/m2, Cohort 3, 24 mg/m^2 IV, r6-8=Subjects 1-3,r10=Mean,r12=Min,r13=Median,r14=Max,r16=Geometric Mean, read-out: Tmax) of 0.5 h and a half-life (24 mg/m2, Cohort 3, 24 mg/m^2 IV, r6-8=Subjects 1-3,r10=Mean,r12=Min,r13=Median,r14=Max,r16=Geometric Mean, read-out: t½ (converted)) of 9.88 h. For the same molecule, the half-life (24 mg/m2, Cohort 3, 24 mg/m^2 IV, range over subjects, read-out: Half-lives range) was 7.85 to 13.1 h, the concentration at 24.5 h (24 mg/m^2, Cohort 3, 24 mg/m^2 IV, range over 3 subjects) was 0.87 to 2.91 ng/mL and the concentration at 1 h (24 mg/m^2, Compound 1 Concentration, Cohort 3, 24 mg/m^2 IV, Time 1.0 h) was 39.2 ng/mL. It also gave a concentration at 2.5 h (24 mg/m^2, Compound 1 Concentration, Cohort 3, 24 mg/m^2 IV, Time 2.5 h) of 15 ng/mL, a concentration at 3.5 h (24 mg/m^2, Compound 1 Concentration, Cohort 3, 24 mg/m^2 IV, Time 3.5 h) of 11.6 ng/mL and a concentration at 6.5 h (24 mg/m^2, Compound 1 Concentration, Cohort 3, 24 mg/m^2 IV) of 6.7 ng/mL. The concentration at 8.5 h (24 mg/m^2, Compound 1 Concentration, Cohort 3, 24 mg/m^2 IV, Time 8.5 h) was 4.91 ng/mL and the AUC(0-inf) (48 mg/m2, Cohort 4, 48 mg/m^2 IV, mean, read-out: AUCinf averaged) was 499 ng·h/mL.

Reference: patent publication US20160220569A1, “CDK4/6 Inhibitor Dosage Formulations For The Protection Of Hematopoietic Stem And Progenitor Cells During Chemotherapy” (G1 Therapeutics, Inc., priority 2015, published 2016)
